From ChEMBL document CHEMBL5107949, “Design, synthesis, and antibacterial activity of N-(trifluoromethyl)phenyl substituted pyrazole derivatives” (RSC Med Chem, 2021)
Converted amounts (≈) assume the structure as drawn. The source made the active and inactive calls. No cut-off for these calls is given here.

Assays:
Staphylococcus aureus [1] = experiment: Antibacterial activity against antibiotic resistant Staphylococcus aureus BAA-2312 assessed as inhibition of bacterial growth by CLSI protocol based broth microdilution method; format: functional
Staphylococcus aureus [2] = experiment: Anti-biofilm activity against Staphylococcus aureus ATCC 25923 assessed as eradication of biofilm formation incubated for 24 hrs by Calgary biofilm device assay; format: functional
Staphylococcus aureus [3] = experiment: Antibacterial activity against antibiotic resistant Staphylococcus aureus ATCC 700699 assessed as inhibition of bacterial growth by CLSI protocol based broth microdilution method; format: functional
[4] = Cytotoxicity against human HEK293 cells reduction in cell viability incubated for 24 hrs by resazurin cell viability assay; format: toxicity, cell-based
Staphylococcus aureus [5] = experiment: Antibacterial activity against antibiotic resistant Staphylococcus aureus ATCC 33592 assessed as inhibition of bacterial growth by CLSI protocol based broth microdilution method; format: functional
Staphylococcus aureus [6] = experiment: Bactericidal activity against Staphylococcus aureus ATCC 700699 persisters assessed as log reduction in colony forming unit at 16 times MIC after 4 hrs by colony counting method; format: functional
Enterococcus faecalis [7] = experiment: Antibacterial activity against antibiotic susceptible Enterococcus faecalis ATCC 29212 assessed as inhibition of bacterial growth by CLSI protocol based broth microdilution method; format: functional
Staphylococcus aureus [8] = experiment: Antibacterial activity against antibiotic susceptible Staphylococcus aureus ATCC 25923 assessed as inhibition of bacterial growth by CLSI protocol based broth microdilution method; format: functional
Enterococcus faecalis [9] = experiment: Inhibition of biofilm formation in Enterococcus faecalis ATCC 29212 at 12.5 ug/ml incubated for 24 hrs by Calgary biofilm device assay; format: functional; settings: dose 12.5 µg/ml
Staphylococcus aureus [10] = experiment: Inhibition of biofilm formation in Staphylococcus aureus ATCC 25923 at 3.125 to 12.5 ug/ml incubated for 24 hrs by Calgary biofilm device assay; format: functional, organism-based; settings: dose 3.125-12.5 µg/ml, DDE = dose-dependent effect
Staphylococcus aureus [11] = experiment: Inhibition of biofilm formation in Staphylococcus aureus ATCC 25923 at 12.5 ug/ml incubated for 24 hrs by Calgary biofilm device assay; format: functional
Staphylococcus aureus [12] = experiment: Antibacterial activity against Staphylococcus aureus ATCC 25923 assessed as minimum bactericidal concentration incubated for 24 hrs by Calgary biofilm device assay; settings: ATCC 25923, 24 h
Enterococcus faecium = experiment: Antibacterial activity against vancomycin resistant Enterococcus faecium ATCC 700221 assessed as inhibition of bacterial growth by CLSI protocol based broth microdilution method; format: functional
Staphylococcus aureus [13] = experiment: Antibacterial activity against antibiotic resistant Staphylococcus aureus ATCC 33591 assessed as inhibition of bacterial growth by CLSI protocol based broth microdilution method; format: functional
Enterococcus faecalis [14] = experiment: Anti-biofilm activity against Enterococcus faecalis ATCC 29212 assessed as minimum bactericidal concentration incubated for 24 hrs by Calgary biofilm device assay; settings: ATCC 29212, 24 h
Staphylococcus aureus [15] = experiment: Bactericidal activity against Staphylococcus aureus ATCC 700699 assessed as bacteria elimination at 4 times MIC and measured after 6 hrs by time-kill assay; format: functional
[16] = test system: Staphylococcus epidermidis; experiment: Antibacterial activity against antibiotic resistant Staphylococcus epidermidis ATCC 700296 assessed as inhibition of bacterial growth by CLSI protocol based broth microdilution method; format: functional
Enterococcus faecalis [17] = experiment: Anti-biofilm activity against Enterococcus faecalis ATCC 29212 assessed as eradication of biofilm formation incubated for 24 hrs by Calgary biofilm device assay; format: functional
Enterococcus faecalis [18] = experiment: Inhibition of biofilm formation in Enterococcus faecalis ATCC 29212 at 6.25 ug/ml incubated for 24 hrs by Calgary biofilm device assay; format: functional; settings: dose 6.25 µg/ml
Bacillus subtilis = experiment: Antibacterial activity against antibiotic resistant Bacillus subtilis ATCC 6623 assessed as inhibition of bacterial growth by CLSI protocol based broth microdilution method; format: functional
Enterococcus faecalis [19] = experiment: Anti-biofilm activity against Enterococcus faecalis ATCC 29212 assessed as biofilm eradication at 3.125 to 12.5 ug/ml incubated for 24 hrs by Calgary biofilm device assay; format: functional, organism-based; settings: dose 3.125-12.5 µg/ml
Staphylococcus aureus [20] = experiment: Inhibition of DNA synthesis in Staphylococcus aureus ATCC 29213 at 8 times MIC preincubated for 30 mins followed by [3H]-thymidine and measured after 30 mins by [3H]-thymidine incorporation based beta scintillation counter analysis; format: functional; settings: time 60 min; 1 h
Staphylococcus aureus [21] = experiment: Inhibition of lipid synthesis in Staphylococcus aureus ATCC 29213 at 8 times MIC preincubated for 30 mins followed by [3H]-glycerol and measured after 50 mins by [3H]-glycerol incorporation based beta scintillation counter analysis; format: functional; settings: time 80 min; 1.333 h
Staphylococcus aureus [22] = experiment: Inhibition of RNA synthesis in Staphylococcus aureus ATCC 29213 at 8 times MIC preincubated for 30 mins followed by [3H]-uridine and measured after 30 mins by [3H]-uridine incorporation based beta scintillation counter analysis; format: functional; settings: time 60 min; 1 h

## Cc1cc(NCc2cn(-c3ccc(C(F)(F)F)cc3)nc2-c2ccc(C(=O)O)cc2)ccc1Br
Staphylococcus aureus [1]
  MIC: 3.12 µg/mL (≈ 5.88 µM)
Staphylococcus aureus [2]
  MBEC: 12.5 µg/mL
Staphylococcus aureus [3]
  MIC: 1.56 µg/mL (≈ 2.94 µM)
[4]
  IC50 at 24 h: > 12 µg/mL
Staphylococcus aureus [5]
  MIC: 3.12 µg/mL (≈ 5.88 µM)
Staphylococcus aureus [6]
  log(activity): >2
Enterococcus faecalis [7]
  MIC: 6.25 µg/mL (≈ 11.8 µM)
Staphylococcus aureus [8]
  MIC: 3.12 µg/mL (≈ 5.88 µM)
Enterococcus faecalis [9]
  inhibition: Active
Staphylococcus aureus [10]
  inhibition: Dde
Staphylococcus aureus [11]
  inhibition at 12.5 µg/mL: > 90%
Staphylococcus aureus [12]
  MBC: 12.5 µg/mL (≈ 23.6 µM)
Enterococcus faecium
  MIC: 3.12 µg/mL (≈ 5.88 µM)
Staphylococcus aureus [13]
  MIC: 6.25 µg/mL (≈ 11.8 µM)
Enterococcus faecalis [14]
  MBC: 12.5 µg/mL (≈ 23.6 µM)
Staphylococcus aureus [15]
  Activity: >99.9%
[16]
  MIC: 12.5 µg/mL (≈ 23.6 µM)
Enterococcus faecalis [17]
  MBEC: 25 µg/mL
Enterococcus faecalis [18]
  inhibition: Active
Bacillus subtilis
  MIC: 1.56 µg/mL (≈ 2.94 µM)
Enterococcus faecalis [19]
  Activity: Active

## O=C(O)c1cn(C2CC2)c2cc(N3CCNCC3)c(F)cc2c1=O [CIPROFLOXACIN]
Staphylococcus aureus [20]
  inhibition (INH): 86.2%

## C/C=C/C/C=C/CCC(=O)[C@H]1O[C@H]1C(N)=O [CERULENIN]
Staphylococcus aureus [21]
  inhibition (INH): 71.9%

## CO[C@H]1/C=C/O[C@@]2(C)Oc3c(C)c(O)c4c(O)c(c(/C=N/N5CCN(C)CC5)c(O)c4c3C2=O)NC(=O)/C(C)=C\C=C\[C@H](C)[C@H](O)[C@@H](C)[C@@H](O)[C@@H](C)[C@H](OC(C)=O)[C@@H]1C [RIFAMPIN]
Staphylococcus aureus [22]
  inhibition (INH): 76.3%
